Patent US20180289702A1, “LPA LEVEL REDUCTION FOR TREATING CENTRAL NERVOUS SYSTEM DISORDERS” (priority 2015, published 2018)

How the values were obtained:
[1] = PF8380 concentration in serum and cerebrospinal fluid by mass spectrometry; type: in vivo, mice
Procedure: (§1) Animals were treated using the in-vivo potent autotaxin inhibitor PF 8380 (Gierse et al., 2010). Animals received a single i.p. injection 3 hours prior to PPI.
Nanoscale UPLC separation was performed with a nanoAcquity UPLC system (Waters Corporation) equipped with a PepSwift Monolithic PS-DVB, 200 μm×5 cm analytical column (Thermo Scientific Dionex). For analysis, samples (300 nL) were directly injected onto the analytical column. Mobile phase A was water containing 0.1% v/v formic acid, while mobile phase B was ACN containing 0.1% v/v formic acid. Samples were separated at 55° C. with a gradient of 1-35% mobile phase B over 20 min at a flow rate of 800 nL/min. The column was rinsed for 7 min with 99% mobile phase B, followed by a re-equilibration step at initial conditions resulting in total analysis times of 40 min.
Mass spectrometric analysis of PF-8380 was performed in positive mode ESI using a Synapt G2-S HDMS mass spectrometer (Waters Corporation). Samples were analyzed using a targeted MS-method isolating the singly charged precursor of PF-8380. […] All samples and references were analyzed in three technical replicates.
Raw data were analyzed manually using MassLynx V4.1 Software (Waters Corporation). Extracted ion chromatograms of fragment ions at m/z 301 were used for quantitative analysis calculating the area under the curve. […]

PRG-1+/− mice [2] = assay: pre-pulse inhibition (PPI) of the startle response in PRG-1+/− mice; type: in vivo; settings: i.p. 3 hours prior to PPI, level not different to wt
Procedure: as §1

[3] = system: animal model of schizophrenia induced by ketamine; assay: ketamine-induced animal model of schizophrenia: PPI and open field hyperactivity; type: in vivo, mice
From the text: In order to correlate these electrophysiological effects with behavior in these mice, the inventors first analyzed PPI after ketamine application. […] In sum, ATX-inhibition has the general potential to normalize E/I balance in psychiatric disorders associated with increased glutamatergic input and opens a new therapeutic avenue towards treatment of psychiatric disorders.

PRG-1+/− mice [4] = assay: MCAO stroke model in PRG-1+/− mice; type: in vivo
Procedure: For stroke experiments, mice were anesthetized and occlusion of the medial cerebral artery (MCAO) was performed for 30 min (assessment after 3 days) or for 1 h (assessment after 1day) by introduction of an intraluminal filament as reported (Ploen et al., 2014). […] After 1 h or after 30 min of MCAO, respectively, mice recovered and were perfused 24 hours (1 h MCAO) or 72 hours (30 min MCAO) later. Brains were extracted, snap frozen and cryosectioned using a cryotome. Mounted brain slices were Nissl-Stained which allowed to measure infarct area and to calculate total infarct volume per animal. All measurements were performed in a blinded fashion. Data was assessed for normality and statistical analysis was performed using an one-tailed t-test.

PRG-1 Ko mice = assay: mEPSC recordings with PF8380, PRG-1 Ko; type: cell-based; settings: 1 μM
[5] = system: hippocampal slices from PRG-1 KO mice; assay: evoked EPSCs in hippocampal slices; type: cell-based
PRG1−/− mice = assay: simultaneous in-vivo recordings of MEC and hippocampal CA1 in freely moving mice
Procedure: Electrophysiological measurements in freely moving animals were performed as described (O'Neill PK et al. 2013). Briefly, animals were kept during surgical procedures under isoflurane anesthesia and electrodes (WE3PT10.5F3, MicroProbes, Gaithersburg, Md., USA) were chronically implanted in the medial entorhinal cortex (MEC; 3.1 mm, lateral to the midline, 0.2 mm anterior to the transverse sinus at an angle of 6° in the anterior-to-posterior direction in the sagittal plane) and in the hippocampal CA1-region (1.5 mm lateral to the midline, 1.5 mm anterior-to-posterior and 1.2 mm dorsal-to-ventral at an angle of 0°). The electrodes were connected to an electrode interface board (EIB-16; Neuralynx, USA) and were secured to the skull using jewelers screws and dental cement. Neural data was acquired using a 16-channel head stage and a Digital Lynx data acquisition system (Neuralynx, USA). The animal's position was monitored using two light-emitting diodes mounted on the head stage. To extract local field potentials, the neural signals were bandpass filtered between 1 and 1000 Hz and digitized at 2 kHz. Separate recordings, each lasting 10 minutes, were made while animals moved freely in their home cage in an open field (0.5 m×0.5 m×0.5 m) and in a plus-maze with a length of 0.4 m per arm. Recordings were repeated for two days. Analysis of neural and behavioral data was performed using custom-written MATLAB scripts (MathWorks). Recording location was verified by current application at the end of the experiment after which animals were perfused, and the brains were cut on a vibratome and Nissl stained using cresyl violet.
Coherence of neuronal activity between the MEC and in the CA1 was computed using the multitaper method (MATLAB routines provided by K. Harris, University College London, London, UK, and G. Buzsáki, New York University, New York, N.Y., USA). […] Power was calculated by taking the absolute value of the wavelet transform and averaged across time to obtain the power spectrum. […]

mice = assay: food intake after overnight food deprivation; type: in vivo
From the text: Metabolic alterations like overnight fasting induce changes in LPA subtype composition (Ino M et al. 2012). This correlates with the increased activity of ATX after overnight food deprivation, the availability of the ATX substrate LPC but also with the substrate preferences of ATX for unsaturated LPCs. In order to understand the cortical effects of altered LPA-composition upon fasting, the inventors analyzed food consumption after overnight food deprivation in control and PF8380-treated animals. […] However, overnight food deprivation was not related to hyperlocomotion since travelled distance in an open field setting was not different between control, overnight food deprived and PF-treated overnight food deprived animals (FIG. 19B).

For `O=C(CCN1CCN(C(=O)OCc2cc(Cl)cc(Cl)c2)CC1)c1ccc2[nH]c(=O)oc2c1` [PF8380, 4-[3-(2,3-Dihydro-2-oxo-6-benzoxazolyl)-3-oxopropyl]-1-piperazinecarboxylic acid (3,5-dichlorophenyl)methyl ester], which “concentrations in the serum” value ([1]; in-vivo application 30 mg/KG/BW) is on record?
The value was “robust concentrations”.

And the concentration at 3 h ([1]; mouse, cerebrospinal fluid, ip, 30 mg/KG/BW, single i.p. injection, 3 hours after injection)?
The concentration at 3 h was ≤ 420 nM.

What about the PPI-deficit (PRG-1+/− mice [2]) of the same compound?
Its PPI-deficit is “significantly rescued”.

What about the PPI [3] of the same compound?
The PPI was “rescued to WT values”.

And the “hyperactivity following ketamine application in an open field setting” value [3]?
The value was “significantly reduced”.

And the infarct volume (PRG-1+/− mice [4]; 30 min MCAO measured 3 d after stroke)?
The infarct volume was “significantly decreased”.

What about the “outcome in modified Neurologic Severity Score” value (PRG-1+/− mice [4]; 3 h, 24 h, 48 h and 72 h post MCAO) of the same compound?
Its value is “significantly improves”.

And the “long-term sensorimotor dysfunction, corner test” value (PRG-1+/− mice [4]; 24 h up to 72 h post MCAO)?
The value was “significantly improved”.

And the mEPSC amplitude (PRG-1 Ko mice)?
The mEPSC amplitude was “not influencing”.

And the mEPSC frequency (PRG-1 Ko mice)?
Its mEPSC frequency is “significantly reduced”.

What about the PPR [5] of the same compound?
The PPR was “increased”.

And the “evoked potentials (eEPSC, first stimulus)” value [5]?
Its value is “significantly affected”.

And the “second stimulus applied at an interval of 50 ms” value [5]?
Its value is “did not alter”.

What about the “gamma coherence between MEC and CA1” value (PRG1−/− mice; PF8380 treated PRG1−/− mice) of the same compound?
Its value is “reduced to WT levels”.

What about the “peak frequency of theta coherence between MEC and CA1” value (PRG1−/− mice; PF8380 treated PRG1−/− mice compared with WT mice) of the same compound?
The value was “lower”.

And the “average movement speed during exploratory behavior in the open field” value (PRG1−/− mice; wild type, untreated and PF8380-treated PRG-1−/− mice)?
Its value is “no difference”.

What about the food intake (mice; control mice (not food deprived)) of the same compound?
The food intake was “does not alter”.

And the food intake (mice; overnight food deprived animals, within 60 min)?
Its food intake is “significantly decreased”.
